Data from US5424329A, “Indole-2-carboxamides as inhibitors of cell adhesion” (Warner-Lambert Company, priority 1993, dated 1995).
pIC50: −log10 of the molar value. Where a name gives a salt, the structure may show the parent alone.

What was measured:
[1] = system: activation of HIV-1 in OM-10.1 cells; conditions: poster NCDDG/AIDS 1991; cited from earlier work
[2] = system: human neutrophil adhesion to TNF-α stimulated human umbilical vein endothelial cells (HUVEC); assay: Inhibition of human neutrophil adhesion to TNF-stimulated human umbilical vein endothelial cells (modified method, calcein-AM fluorescence); assay type: cell-based; conditions: for pIC50: 4 hours, IC50 from 33.3, 10.0, 3.3 and 1.0 μM
Experimental: MODIFIED METHOD FOR DETERMINING THE INHIBITION OF HUMAN NEUTROPHIL ADHESION TO TNF-α, IL-1α, AND LPS STIMULATED
HI/MAN UMBILICAL VEIN ENDOTHELIAL CELLS BY
3-SUBSTITUTED-INDOLE-2-CARBOXAMIDES
Second passage HUVEC (Clonetics Corporation, San Diego, Calif., CC-2617) were seeded into Corning (Corning glass works, Corning, N.Y.) 96-well cell culture plates at approximately 5×10^3 cells/well and grown to confluency in supplemented endothelial basal medium (EBM, MCDB-131, Clonetics, 10 ng/mL EGF, 1 μg/mL hydrocortisone, 0.4% bovine brain extract, 5% Fetal Bovine Serum). One day prior to running the assay, typically 3 days postseeding, the cultures were re-fed with 0.2 mL/well supplemented EBM (S-EBM).
Preparation of Test Compounds
Test compounds were prepared as 10 mL stock solutions at a concentration of 1.0 mM. The compounds were initially solubilized in 0.1 mL DMSO followed by the addition of 9.9 mL S-EBM. The drug preparations were then diluted in one step to a concentration of 66.6 μM. Solubilizations and dilutions were performed in polystyrene containers.
Isolation of Human Neutrophils
Human neutrophils were isolated from anticoagulant-treated venous blood obtained from healthy volunteers according to the method of Ferrante and Thong, J. Immunol. Methods 1978;24:389-393. The cell preparations consisted of greater than 98% neutrophils.
Recombinant human tumor necrosis factor-α (TNF, Genzyme, Boston, Mass., code TNF-H) was prepared at 400 U/mL in S-EBM. Stock TNF was prepared to 20,000 U/mL in Delbecco's phosphate buffered saline (PBS, Gibco, Grand Island, N.Y.) plus 0.1% BSA and stored at -70° C. HUVEC were washed one time with 0.2 mL warm unsupplemented EBM and then stimulated for 4 hours at 37° C. with 200 U/mL TNF in the presence of 33.3 μM test compound. This was accomplished by adding 0.1 mL of 400 U/mL TNF and 0.1 mL 66.6 μM test compound. These additions were done slowly as to not disrupt the HUVEC monolayer. Each compound was tested in six wells. Unstimulated (vehicle control) and TNF-stimulated without test compound treatments were also run in each plate.
One hour prior to adding the neutrophils to the HUVEC, neutrophils (5×10^6 /mL) were labeled for 30 minutes at 37° C. with 5 μM calcein-AM (Molecular Probes, Eugene, Oreg.) in Hanks' balanced salt solution plus 0.45% BSA. Stock calcein was prepared to 5 mM in anhydrous DMSO and stored desiccated at -20° C. At the end of the incubation the cells were washed two times in cold HBSS and resuspended to a final concentration of 1×10^6 cells/mL in unsupplemented EBM.
Addition of Neutrophils to HUVEC
At the end of the 4-hour stimulation and immediately prior to the addition of the neutrophils to the HUVEC monolayer, the plates were washed with 0.2 mL warm unsupplemented EBM to remove TNF and drug. Neutrophils (1×10^5 cells) were slowly added to each of the treated wells and incubated for 30 minutes at 37° C. At the end of the incubation the plates were washed two times with 0.2 mL warm unsupplemented EBM followed by a final addition of 0.1 mL for plate scanning.
Determination of Relative Fluorescence
The relative fluorescence was determined using a Millipore Cytofluor 2300 system (excitation=480, emission=530, sensitivity=4). Each file was saved on disk as a comma separated value (.CSV) file for import into a spreadsheet.
Results were expressed as means of percent inhibition of TNF-stimulated adherence. A Quattro Pro (Borland, Scotts Valley, Calif.) spreadsheet has been programmed to accept the raw data and perform all necessary calculations. [formula]
Linear regression analysis of the means of the inhibition values were used to determine the IC50.

[3] = system: HIV activation in OM-10.1 cells; assay: Inhibition of activation of latent HIV in OM-10.1 cells; assay type: cell-based, HIV-1; conditions: Human immunodeficiency virus 1, chronically HIV-infected promyelocytic clone
Description: The cellular pathways involved in mediating the activating signal from the plasma membrane to the integrated virus, resulting in HIV-1 expression, are much less clear. Recently, the development of a reliable and simple system for evaluating compounds that could prevent activation of latent HIV was reported at the National […] (NCDDG)/AIDS by P. Feorino, S. T. Butera, T. M. Folks, and R. F. Schinazi, Nov. 3-7, 1991. The assay system employed the OM-10.1 cell line, a unique chronically-infected promyelocytic clone which remains CD4+ until HIV-1 activation with tumor necrosis factor-α. The expression of CD4+ on the cell surface and the activity of reverse transcriptase are used as markers for quantitating viral expression. Alternatively, other HIV markers, such as protease activity, which are known to those of skill in the art can be used. OM-10.1 cells remain CD4^+ until viral activation and respond to tumor necrosis factor induction, and therefore, these cultures are used to conveniently and rapidly examine pharmacologics for an ability to prevent CD4^+ down modulation (decrease in expression of CD4^+ on the cell surface) and HIV-1 expression.

[4] = system: human neutrophil adhesion to TNF-α, IL-1α, and LPS-stimulated human umbilical vein endothelial cells (HUVEC); assay: Inhibition of human neutrophil adhesion to TNF-α, IL-1α, and LPS-stimulated human umbilical vein endothelial cells (chromium assay); assay type: cell-based
Description: METHOD FOR DETERMINING THE INHIBITION OF HUMAN NEUTROPHIL ADHESION TO TNF-α, IL-1α, AND LPS-STIMULATED HUMAN UMBILICAL VEIN ENDOTHELIAL
CELLS BY 3-SUBSTITUTED-INDOLE-2-CARBOXAMIDES
Neutrophils were isolated from anticoagulant-treated venous blood obtained from healthy human volunteers according to the method of Ferrante and Thong (J. Immunol. Methods 1978;24:389-393). The cell preparations consisted of greater than 98% neutrophils.
Second passage human umbilical vein endothelial cells (HUVEC) (Clonetics, San Diego, Calif.) were seeded into Falcon 24-well cell culture plates (Becton Dickinson, Lincoln Park, N.J.) at approximately 2×10^4 cells per well. The cells were grown to confluent monolayers in endothelial basal medium (EBM, Clonetics) supplemented with 5% fetal calf serum (Hyclone Laboratories, Logan, Utah), 10 ng/mL EGF, 1μg/mL hydrocortisone, 0.4% bovine brain extract (Clonetics) in 5% CO2 at 37° C. […]
Stimulation of HUVEC with tumor necrosis factor-α (TNF-α) (Genzyme, Cambridge, Mass.), interleukin (IL-1α) (Genzyme) or E. coli 0111:B4 lipopolysaccharide (LPS) (Sigma) in the presence or absence of drug was initiated 4 hours prior to the addition of neutrophils. […] Lysates were collected and the radioactivity in each well was determined by gamma ray spectroscopy.

Cc1cn([C@H]2C[C@H](F)[C@@H](CO)O2)c(=O)[nH]c1=O [3'-fluoro-3'-deoxythymidine (FLT), 3'-fluoro-3'-deoxythymidine]
inhibition of the activation of HIV-1 [1]: modest inhibitors

CCN(CC)c1c(C(N)=O)[nH]c2ccc(OC)cc12 [Example 20, 3-(Diethylamino)-5-methoxy-1H-indole-2-carboxamide, monohydrochloride]
inhibition at 33 µM [2]: 27%

CC(C)Sc1c(C(N)=O)n(C)c2ccc(O)cc12 [Example 29, 5-Hydroxy-1-methyl-3-[(1-methylethyl)thio]-1H-indole-2-carboxamide]
pIC50 [2]: 4.37

CC(C)Oc1c(C(N)=O)n(C)c2ccc(O)cc12 [Example 15, 5-Hydroxy-1-methyl-3-(1-methylethoxy)-1H-indole-2-carboxamide]
pIC50 [2]: 5.15

COc1ccc2c(c1)c(OC(C)C)c(C(N)=O)n2C [Example 1, 5-Methoxy-1-methyl-3-(1-methylethoxy)-1H-indole-2-carboxamide]
pIC50 [3]: 6.10 | pIC50 [2]: 5.00

COc1ccc2c(c1)c(SC(C)C)c(C(N)=O)n2C [Example 26, 5-Methoxy-1-methyl-3-[(1-methylethyl)thio]-1H-indole-2-carboxamide]
pIC50 [2]: 4.54

COc1ccc2c(c1)c(SC)c(C(N)=O)n2C [Example 6, 5-Methoxy-1-methyl-3-(methylthio)-1H-indole-2-carboxamide]
inhibition at 33 µM [2]: 72%

COCn1c(C(N)=O)c(OC(C)C)c2cc(OC)ccc21 [Example 30, 5-Methoxy-1-methoxymethyl-3-(1-methylethoxy)-1H-indole-2-carboxamide]
pIC50 [2]: 4.47

CC(C)Sc1c(C(N)=O)n(C)c2ccc(OCc3ccccc3)cc12 [Example 23, 1-Methyl-3-[(1-methylethyl)thio]-5-(phenylmethoxy)-1H-indole-2-carboxamide]
inhibition at 33 µM [2]: 15%

COc1ccc2[nH]c(C(N)=O)c(OC(C)C)c2c1 [Example 18, 5-Methoxy-3-(1-methylethoxy)-1H-indole-2-carboxamide]
pIC50 [2]: 5.10

COc1ccc2c(c1)c(OC(C)C)c(C(N)=O)n2-c1ccccc1 [Example 16, 5-Methoxy-3-(1-methylethoxy)-1-phenyl-1H-indole-2-carboxamide]
inhibition at 100 µM [4]: 35%

CC(=O)N(O)CCCCCNC(=O)CCC(=O)N(O)CCCCCNC(=O)CCC(=O)N(O)CCCCCN [desferrioxamine]
inhibition of the activation of HIV-1 [1]: modest inhibitors

CCOc1c(C(N)=O)n(-c2ccccc2)c2ccc(OC)cc12 [Example 19, 3-Ethoxy-5-methoxy-1-phenyl-1H-indole-2-carboxamide]
inhibition at 33 µM [2]: 13%

interferon Y: interferon Y
inhibition of the activation of HIV-1 [1]: modest inhibitors
